Laboratory results taken from BindingDB's records for patent US10294246 (Merck Patent, 2019).

Molecular target: T1, Proteasome subunit beta type-8 (Homo sapiens, UniProt P28062)
T1 sequence (P28062 whole entry): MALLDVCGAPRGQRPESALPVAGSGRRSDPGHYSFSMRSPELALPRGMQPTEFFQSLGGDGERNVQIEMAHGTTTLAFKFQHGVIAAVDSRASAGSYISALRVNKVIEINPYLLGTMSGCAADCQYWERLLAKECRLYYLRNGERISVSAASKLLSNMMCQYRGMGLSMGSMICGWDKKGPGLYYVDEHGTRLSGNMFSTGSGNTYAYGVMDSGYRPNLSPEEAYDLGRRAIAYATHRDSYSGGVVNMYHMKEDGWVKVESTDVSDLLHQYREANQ
Experiment: Determination of LMP7 Activity
Experimental: Measurement of LMP7 inhibition is performed in 384 well format based on fluorescence intensity assay.Purified human immunoproteasome (0.25 nM) and serial diluted compounds in DMSO (range of concentrations from 30 μM to […]) or controls are incubated for 20 minutes at 25° C. in assay buffer containing 50 mM Tris pH 7.4, 0.03% SDS, 1 mM EDTA and 1% DMSO. The reaction is initiated by the addition of the fluorogenic peptide substrate, Suc-LLVY-AMC (Bachem 1-1395), at a concentration of 40 μM. After 60 minutes of incubation at 37° C., fluorescence intensity is measured at λex=350 nm and λem=450 nm with a fluorescence reader (Perkin Elmer Envision reader or equivalent).

IC50 [nM]	Structure (SMILES)
< 50	C[C@H](C(=O)N[C@@H](Cc1coc2ccccc12)B(O)O)c1ccccc1 [US10294246, Compound No. 37]
< 50	Cc1ccc(OCCC(=O)N[C@@H](Cc2coc3ccccc23)B(O)O)cc1 [US10294246, Compound No. 7]
< 50	CC(=O)Nc1cccc(CC(=O)N[C@@H](Cc2coc3ccccc23)B(O)O)c1 [US10294246, Compound No. 32]
< 50	CC(=O)Nc1ccc(CC(=O)N[C@@H](Cc2coc3ccccc23)B(O)O)cc1 [US10294246, Compound No. 26]

More lines, now with the values behind:

Structure (SMILES)	IC50 [nM]
CCO[C@@H](C(=O)N[C@@H](Cc1coc2ccccc12)B(O)O)c1ccccc1 [US10294246, Compound No. 70]	< 50
COc1ccc(C(F)(F)C(=O)N[C@@H](Cc2coc3ccccc23)B(O)O)cc1 [US10294246, Compound No. 51]	< 50
CO[C@H](C(=O)N[C@@H](Cc1coc2ccccc12)B(O)O)c1ccccc1 [US10294246, Compound No. 33]	< 50
